Laboratory results published in US7166609B2, “Pyrimidine-4,6-dicarboxylic acid diamides for selectively inhibiting collagenases” (Sanofi-Aventis Deutschland GmbH, priority 2002, dated 2007).

molecular target: T1, catalytic domain of human collagenase 3 (MMP-13) (Homo sapiens, UniProt P45452); experiment: Enzyme activity of the catalytic domain of human collagenase 3 (MMP-13), fluorogenic substrate; type: biochemical; details: not given
T1 construct: Determining the enzyme activity of the catalytic domain of human collagenase 3 (MMP-13); purchased INVITEK, Berlin 30 100 803
Protocol: Determining the enzyme activity of the catalytic domain of human collagenase 3 (MMP-13).
Activating the proenzyme:
2 parts by volume of proenzyme are incubated with 1 part by volume of APMA solution at 37° C. for 1.5 hours. The APMA solution is prepared from a 10 mmol/L solution of p-aminophenylmercuric acetate in 0.1 mmol/L NaOH by diluting with 3 parts by volume of tris/HCl buffer, pH 7.5 (see below). The pH is adjusted to between 7.0 and 7.5 by adding 1 mmol/L HCl. After the enzyme has been activated, it is diluted to a concentration of 1.67 μg/ml using the tris/HCl buffer.
In order to measure the enzyme activity, 10 μL of enzyme solution are incubated for 15 minutes with 10 μL of a 3% (v/v) buffered solution of dimethyl sulfoxide (reaction 1). In order to measure the enzyme inhibitor activity, 10 μL of enzyme solution are incubated with 10 μL of a 3% (v/v) buffered solution of dimethyl sulfoxide containing the enzyme inhibitor (reaction 2).
In the case of both reaction 1 and reaction 2, the enzyme reaction is monitored by fluorescence spectroscopy (328 nm (extinction)/393 nm (emission)) after adding 10 μL of a 3% (v/v) aqueous solution of dimethyl sulfoxide containing 0.75 mmol of the substrate/L.
The enzyme activity is depicted as increase in extinction/minute.
The effect of the inhibitor is calculated as a percentage inhibition using the following formula: % inhibition=100−[(increase in extinction/minute in reaction 2)/(increase in extinction/minute in reaction 1)×100].
The IC50, i.e. the inhibitor concentration which is required for inhibiting the enzyme activity by 50%, is determined graphically by plotting the percentage inhibitions at different inhibitor concentrations.
The buffer solution contains 0.05% Brij (Sigma, Deisenhofen, Germany) and 0.1 mol of tris/HCl/L, 0.1 mol of NaCl/L and 0.01 mol of CaCl2/L (pH=7.5). The enzyme solution contains 1.67 μg of the enzyme domain/mL.
The substrate solution contains 0.75 mmol/L of the fluorogenic substrate (7-methoxycoumarin-4-yl)acetyl-Pro-Leu-Gly-Leu-3-(2′,4′-dinitrophenyl)-L-2,3-diaminopropionyl-Ala-Arg-NH2 (Bachem, Heidelberg, Germany).

| Structure (SMILES) | IC50 |
| --- | --- |
| O=C1CCN(C(=O)c2ccc(CNC(=O)c3cc(C(=O)NCc4ccc5c(c4)CCO5)ncn3)cc2)CC1 [Example 66] | 10 nM |
| COc1cccc(CNC(=O)c2cc(C(=O)NCc3ccc(C(=O)N4CCC(=O)CC4)cc3)ncn2)c1 [Example 64] | 10 nM |
| Cc1cc(CNC(=O)c2cc(C(=O)NCc3ccc(C(=O)N4CCC(=O)CC4)cc3)ncn2)ccc1F [Example 65] | 15 nM |

same assay, conditions: catalytic domain, activated proenzyme, pH 7.5; read-out: IC50 MMP13

| Structure (SMILES) | IC50 |
| --- | --- |
| Cc1cc(CNC(=O)c2cc(C(=O)NCc3ccc(C(=O)NCCN4CCOCC4)cc3)ncn2)ccc1F [Example 105] | 23 nM |
| COc1cccc(CNC(=O)c2cc(C(=O)NCc3cccc(NC(=O)OC(C)C)c3)ncn2)c1 [Example 150] | 80 nM |
| O=C(NCc1ccc(C(=O)N2CCSCC2)cc1)c1cc(C(=O)NCc2ccc3c(c2)CCO3)ncn1 [Example 72] | 10 nM |
| COc1cccc(CNC(=O)c2cc(C(=O)NCc3ccc(C(=O)N4CCN(C)CC4)cc3)ncn2)c1 [Example 114] | 50 nM |
| O=C(NCc1ccncc1)c1cc(C(=O)NCc2ccc3c(c2)CCO3)ncn1 [Example 4, Pyrimidine-4,6-dicarboxylic acid4-[(2,3-dihydrobenzofuran-5-ylmethyl)amide] 6-[(pyridin-4-ylmethyl)amide]] | 20 nM |
| CCN(CC)C(=O)c1ccc(CNC(=O)c2cc(C(=O)NCc3ccc(F)c(Cl)c3)ncn2)cc1 [Example 153] | 15 nM |
| COc1cccc(CNC(=O)c2cc(C(=O)NCc3ccc(C(=O)N4CCSCC4)cc3)ncn2)c1 [Example 71] | 9 nM |
| COc1cccc(CNC(=O)c2cc(C(=O)NCc3ccc(C(=O)N4CCC(O)CC4)cc3)ncn2)c1 [Example 67] | 15 nM |
| Cc1cc(CNC(=O)c2cc(C(=O)NCc3ccc4c(c3)OCCN4C)ncn2)ccc1F [Example 112] | 45 nM |
| COc1cccc(CNC(=O)c2cc(C(=O)NCc3ccc(NC(=O)NC(=O)C4CCCCC4)cc3)ncn2)c1 [Example 125] | 4 nM |
| Cc1cc(CNC(=O)c2cc(C(=O)NCc3ccc(C(=O)NC#N)cc3)ncn2)ccc1F [Example 78] | 3 nM |
| Cc1cc(CNC(=O)c2cc(C(=O)NCc3ccc(NC(=O)NS(C)(=O)=O)cc3)ncn2)ccc1F [Example 83] | 5 nM |
| COc1cccc(CNC(=O)c2cc(C(=O)NCc3ccc(NC(=O)NC(C)(C)C)cc3)ncn2)c1 [Example 138] | 50 nM |
| COc1cccc(CNC(=O)c2cc(C(=O)NCc3ccc(NC(=O)NC4CCCCC4)cc3)ncn2)c1 [Example 136] | 20 nM |
| N#CNC(=O)c1ccc(CNC(=O)c2cc(C(=O)NCc3ccc4c(c3)CCO4)ncn2)cc1 [Example 85] | 3.5 nM |
| COC(=O)CNC(=O)c1ccc(CNC(=O)c2cc(C(=O)NCc3ccc(F)c(C)c3)ncn2)cc1 [Example 106] | 40 nM |
| COc1cccc(CNC(=O)c2cc(C(=O)NCc3ccc(C(=O)N4CCN(c5ccncc5)CC4)cc3)ncn2)c1 [Example 115] | 20 nM |
| Cc1cc(CNC(=O)c2cc(C(=O)NCc3ccc(C(=O)NO)cc3)ncn2)ccc1F [Example 93] | 20 nM |
| COc1cccc(CNC(=O)c2cc(C(=O)NCc3cccc(NC(=O)NS(C)(=O)=O)c3)ncn2)c1 [Example 88] | 33 nM |

| Structure (SMILES) | IC50 |
| --- | --- |
| CCCNC(=O)c1ccc(CNC(=O)c2cc(C(=O)NCc3cccc(OC)c3)ncn2)cc1 [Example 62] | 13 nM |
| C#CCOC(=O)Nc1ccc(CNC(=O)c2cc(C(=O)NCc3cccc(OC)c3)ncn2)cc1 [Example 144] | 9 nM |
| COc1cccc(CNC(=O)c2cc(C(=O)NCc3ccc(NC(=O)NS(=O)(=O)c4ccccc4)cc3)ncn2)c1 [Example 121] | 30 nM |
| COc1cccc(CNC(=O)c2cc(C(=O)NCc3ccc(NC(=O)NC(=O)c4cccnc4)cc3)ncn2)c1 [Example 126] | 2.3 nM |
| COc1cccc(CNC(=O)c2cc(C(=O)NCc3ccc(C(=O)NO)cc3)ncn2)c1 [Example 89] | 18 nM |
| O=C(NCc1ccncc1)c1ccc(CNC(=O)c2cc(C(=O)NCc3ccc4c(c3)CCO4)ncn2)cc1 [Example 82] | 30 nM |
| Cc1cc(CNC(=O)c2cc(C(=O)NCc3ccc(C(=O)N4CCSCC4)cc3)ncn2)ccc1F [Example 70] | 24 nM |
| COc1cccc(CNC(=O)c2cc(C(=O)NCc3ccc(C(=O)N4CCNC(=O)C4)cc3)ncn2)c1 [Example 73] | 25 nM |
| O=C(NO)c1ccc(CNC(=O)c2cc(C(=O)NCc3ccc4c(c3)CCO4)ncn2)cc1 [Example 94] | 20 nM |
| Cc1cc(CNC(=O)c2cc(C(=O)NCc3ccc(C(=O)NCCN4CCCC4)cc3)ncn2)ccc1F [Example 99] | 50 nM |
| COc1cccc(CNC(=O)c2cc(C(=O)NCc3ccc(NC(=O)Nc4cc(Cl)nc(Cl)c4)cc3)ncn2)c1 [Example 137] | 40 nM |
| O=C1CN(C(=O)c2ccc(CNC(=O)c3cc(C(=O)NCc4ccc5c(c4)CCO5)ncn3)cc2)CCN1 [Example 74] | 30 nM |
| COc1cccc(CNC(=O)c2cc(C(=O)NCc3ccc(NC(=O)CN4CCCC4)cc3)ncn2)c1 [Example 128] | 60 nM |
| COc1cccc(CNC(=O)c2cc(C(=O)NCc3ccc(C(=O)N4CCOCC4)cc3)ncn2)c1 [Example 151] | 9 nM |
| COc1cccc(CNC(=O)c2cc(C(=O)NCc3ccc(C(=O)NC4CCNCC4)cc3)ncn2)c1 [Example 109] | 50 nM |
| CS(=O)(=O)NC(=O)Nc1ccc(CNC(=O)c2cc(C(=O)NCc3ccc4c(c3)CCO4)ncn2)cc1 [Example 84] | 3.2 nM |
| COc1cccc(CNC(=O)c2cc(C(=O)NCc3ccc(NC(=O)NC(=O)C(C)C)cc3)ncn2)c1 [Example 127] | 3.3 nM |
| Cc1cc(CNC(=O)c2cc(C(=O)NCc3ccc(C(=O)N4CCC(O)CC4)cc3)ncn2)ccc1F [Example 69] | 32 nM |
| COc1cccc(CNC(=O)c2cc(C(=O)NCc3ccc(NC(=O)NS(C)(=O)=O)cc3)ncn2)c1 [Example 101] | 2 nM |

| Structure (SMILES) | IC50 |
| --- | --- |
| O=C(NCCO)c1ccc(CNC(=O)c2cc(C(=O)NCc3ccc4c(c3)CCO4)ncn2)cc1 [Example 75a] | 34 nM |
| Cc1cc(CNC(=O)c2cc(C(=O)NCc3ccc(C(=O)N4CCNC(=O)C4)cc3)ncn2)ccc1F [Example 75] | 70 nM |
| O=C(NCc1ccc(C(=O)N2CCOCC2)cc1)c1cc(C(=O)NCc2ccc(F)c(Cl)c2)ncn1 [Example 154] | 22 nM |
| CS(=O)(=O)NC(=O)Nc1ccc(CNC(=O)c2cc(C(=O)NCc3ccc(F)c(Cl)c3)ncn2)cc1 [Example 63] | 9 nM |
| Cc1cc(CNC(=O)c2cc(C(=O)NCc3ccc(C(=O)NCCO)cc3)ncn2)ccc1F [Example 76] | 23 nM |
| Cc1cc(CNC(=O)c2cc(C(=O)NCc3ccc(C(=O)N4CCOCC4)cc3)ncn2)ccc1F [Example 87] | 24 nM |
| O=C(NCCN1CCOCC1)c1ccc(CNC(=O)c2cc(C(=O)NCc3ccc4c(c3)CCO4)ncn2)cc1 [Example 122] | 43 nM |
| COc1cccc(CNC(=O)c2cc(C(=O)NCc3ccc(NC(=O)NC(=O)c4ccccc4)cc3)ncn2)c1 [Example 147] | 3 nM |
| CC#CCOC(=O)Nc1ccc(CNC(=O)c2cc(C(=O)NCc3cccc(OC)c3)ncn2)cc1 [Example 139] | 10 nM |
| COc1cccc(CNC(=O)c2cc(C(=O)NCc3ccc(NC(=O)NS(=O)(=O)c4ccc(C)cc4)cc3)ncn2)c1 [Example 118] | 2.4 nM |
| O=C(NCc1ccc(C(=O)N2CCOCC2)cc1)c1cc(C(=O)NCc2ccc3c(c2)CCO3)ncn1 [Example 5, Pyrimidine-4,6-dicarboxylic acid 4-[(2,3-dihydrobenzofuran-5-ylmethyl)amide]6-[4-(morpholine-4-carbonyl)benzylamide]] | 8 nM |
| CN1CCN(C(=O)c2ccc(CNC(=O)c3cc(C(=O)NCc4ccc5c(c4)CCO5)ncn3)cc2)CC1 [Example 119] | 35 nM |
| O=C(NCc1ccc2c(c1)CCO2)c1cc(C(=O)NCc2cccs2)ncn1 [Example 39] | 30 nM |
| COc1cccc(CNC(=O)c2cc(C(=O)NCc3ccc(C(=O)NC(C)(C)C)cc3)ncn2)c1 [Example 96] | 50 nM |
| O=C(NCc1cccnc1)c1cc(C(=O)NCc2ccc3c(c2)OCCO3)ncn1 [Example 44] | 200 nM |
| COc1cccc(CNC(=O)c2cc(C(=O)NCc3ccc(C(=O)NCCN4CCOCC4)cc3)ncn2)c1 [Example 36] | 10 nM |
| CCN(CC)C(=O)c1ccc(CNC(=O)c2cc(C(=O)NCc3cccc(OC)c3)ncn2)cc1 [Example 3, Pyrimidine-4,6-dicarboxylic acid 4-(4-diethylcarbamoylbenzylamide) 6-(3-methoxybenzylamide)] | 4 nM |
| O=C(NCc1ccc(OCCN2CCOCC2)cc1)c1cc(C(=O)NCc2ccc3c(c2)CCO3)ncn1 [Example 135] | 20 nM |
| O=C(NCc1ccc2c(c1)CCO2)c1cc(C(=O)NCc2cc(Cl)cs2)ncn1 [Example 129] | 22 nM |
